In patent publication EP0120613A1, “Penem derivatives and precursors” (BEECHAM GROUP PLC, priority 1983, dated 1984):
Blank lines part the entries; values can stand above or below the compound they belong to.

Assays:
Staphylococci Oxford = assay: Antibacterial activity of alkylidene-penems (MIC); format: cell-based; details: compound alone
Staphylococci Russell = assay: Antibacterial activity of alkylidene-penems (MIC); format: cell-based; details: compound alone
[1] = system: range of resistant strains; assay: MIC of Example 1b alone, microtitre technique (Table 3); format: cell-based; details: Ex 1b alone; strains of Table 3
S Aureus Russell = assay: Effect of alkylidene-penems on the MIC of amoxycillin; format: cell-based; details: Amoxycillin alone
Kleb aerogenes = assay: as above; format: cell-based, Klebsiella aerogenes; details: Amoxycillin alone
E. coli JT39 (RTEM) = assay: as above; format: cell-based; details: Amoxycillin alone
Ps.aeruginosa Badia IR = assay: MIC of broad spectrum cephalosporins with Example 1b, microtitre technique; format: cell-based
E.cloacae Dokt 5 = assay: as above; format: cell-based
E.cloacae V692/80 = assay: as above; format: cell-based
C.freundii 423 = assay: as above; format: cell-based
E.cloacae 4508 = assay: as above; format: cell-based
E.cloacae 159/167 = assay: as above; format: cell-based
C.freundii T562 = assay: as above; format: cell-based
E.aerogenes 53 = assay: as above; format: cell-based
S.marcescens HCN 3956 = assay: as above; format: cell-based
E.aerogenes 55 = assay: as above; format: cell-based
C.freundii T1739 = assay: as above; format: cell-based
Ps.aeruginosa Charlier = assay: as above; format: cell-based
E.aerogenes P99 = assay: as above; format: cell-based
M.morganii 978 = assay: as above; format: cell-based
E.cloacae P383 = assay: as above; format: cell-based
S.marcescens V697 = assay: as above; format: cell-based
E.coli JT410 = assay: Effect of alkylidene-penems on the MIC of cephaloridine; format: cell-based; details: Cephaloridine alone

SMILES: O=C(O)C1=CSC2/C(=C\c3ccco3)C(=O)N12 (racemic) [Example 1b, (5 RS) Sodium (Z) -6- Furfurylidenepenem - 3 - carboxylate]
MIC (Staphylococci Oxford): 16.0 µg/mL | MIC (Staphylococci Russell): 16.0 µg/mL | MIC [1]: > 80 µg/mL

SMILES: CCSC1=C(C(=O)O)N2C(=O)/C(=C/c3ccco3)C2S1 (racemic) [Example 2b, (5RS) Sodium 2-Eth^ylthio - (Z)-6-furfurylidenepenem-3-carboxylate]
MIC (Staphylococci Oxford): 5.0 µg/mL | MIC (Staphylococci Russell): 10.0 µg/mL

SMILES: CCSC1=C(C(=O)O)N2C(=O)/C(=C/c3ccc(COC(C)=O)o3)C2S1 (racemic) [Example 5b, (SRS) Sodium (z)-6-(5-Acetoxymethylfurfurylidene)-2-ethylthiopenem-3-carboxylate]
MIC (Staphylococci Oxford): 3.1 µg/mL | MIC (Staphylococci Russell): 12.5 µg/mL

SMILES: CC1(C)S[C@@H]2[C@H](NC(=O)[C@H](N)c3ccc(O)cc3)C(=O)N2[C@H]1C(=O)O [Amoxycillin]
MIC (µg/ml) of antibiotic (S Aureus Russell): 500 µg/mL | MIC (µg/ml) of antibiotic (Kleb aerogenes): 500 µg/mL | MIC (µg/ml) of antibiotic (E. coli JT39 (RTEM)): 2000 µg/mL

SMILES: CO/N=C(\C(=O)N[C@@H]1C(=O)N2C(C(=O)O)=C(COC(C)=O)CS[C@H]12)c1csc(N)n1 [Cefotaxime]
MIC Cephalosporin (Ps.aeruginosa Badia IR; Cefotaxime alone): >80 µg/mL | MIC Cephalosporin (E.cloacae Dokt 5; Cefotaxime alone): >80 µg/mL | MIC Cephalosporin (E.cloacae V692/80; Cefotaxime alone): >80 µg/mL | MIC Cephalosporin (C.freundii 423; Cefotaxime alone): 40 µg/mL | MIC Cephalosporin (E.cloacae 4508; Cefotaxime alone): >80 µg/mL | MIC Cephalosporin (E.cloacae 159/167; Cefotaxime alone): >80 µg/mL | MIC Cephalosporin (C.freundii T562; Cefotaxime alone): 40 µg/mL | MIC Cephalosporin (E.aerogenes 53; Cefotaxime alone): >80 µg/mL | MIC Cephalosporin (S.marcescens HCN 3956; Cefotaxime alone): 80 µg/mL | MIC Cephalosporin (E.aerogenes 55; Cefotaxime alone): 80 µg/mL | MIC Cephalosporin (C.freundii T1739; Cefotaxime alone): 40 µg/mL | MIC Cephalosporin (Ps.aeruginosa Charlier; Cefotaxime alone): >80 µg/mL | MIC Cephalosporin (E.aerogenes P99; Cefotaxime alone): >80 µg/mL | MIC Cephalosporin (M.morganii 978; Cefotaxime alone): >80 µg/mL | MIC Cephalosporin (E.cloacae P383; Cefotaxime alone): >80 µg/mL | MIC Cephalosporin (S.marcescens V697; Cefotaxime alone): >80 µg/mL

SMILES: CC(C)(O/N=C(\C(=O)N[C@@H]1C(=O)N2C(C(=O)[O-])=C(C[n+]3ccccc3)CS[C@H]12)c1csc(N)n1)C(=O)O [Ceftazidine]
MIC Cephalosporin (Ps.aeruginosa Badia IR; Ceftazidine alone): >80 µg/mL | MIC Cephalosporin (E.cloacae Dokt 5; Ceftazidine alone): >80 µg/mL | MIC Cephalosporin (E.cloacae V692/80; Ceftazidine alone): >80 µg/mL | MIC Cephalosporin (C.freundii 423; Ceftazidine alone): 80 µg/mL | MIC Cephalosporin (E.cloacae 4508; Ceftazidine alone): >80 µg/mL | MIC Cephalosporin (E.cloacae 159/167; Ceftazidine alone): >80 µg/mL | MIC Cephalosporin (C.freundii T562; Ceftazidine alone): 80 µg/mL | MIC Cephalosporin (E.aerogenes 53; Ceftazidine alone): >80 µg/mL | MIC Cephalosporin (S.marcescens HCN 3956; Ceftazidine alone): 5 µg/mL | MIC Cephalosporin (E.aerogenes 55; Ceftazidine alone): 80 µg/mL | MIC Cephalosporin (C.freundii T1739; Ceftazidine alone): 80 µg/mL | MIC Cephalosporin (Ps.aeruginosa Charlier; Ceftazidine alone): 80 µg/mL | MIC Cephalosporin (E.aerogenes P99; Ceftazidine alone): 80 µg/mL | MIC Cephalosporin (M.morganii 978; Ceftazidine alone): 2.5 µg/mL | MIC Cephalosporin (E.cloacae P383; Ceftazidine alone): >80 µg/mL | MIC Cephalosporin (S.marcescens V697; Ceftazidine alone): 80 µg/mL

SMILES: O=C(Cc1cccs1)N[C@@H]1C(=O)N2C(C(=O)[O-])=C(C[n+]3ccccc3)CS[C@H]12 [Cephaloridine]
MIC (µg/ml) of antibiotic (E.coli JT410): 62 to 125 µg/mL

The next lines start with the values.

MIC (Staphylococci Oxford): 12.5 µg/mL | MIC (Staphylococci Russell): 12.5 µg/mL
SMILES: O=C(O)C1=C(SCCO)SC2/C(=C\c3ccco3)C(=O)N12 (racemic) [Example 3b, (5RS) Sodium (Z)-6-Furfurylidene-2-(2-hydroxyethylthio) penem-3-carboxylate]

MIC (Staphylococci Oxford): 100 µg/mL | MIC (Staphylococci Russell): 50 µg/mL
SMILES: O=C(O)C1=CSC2/C(=C\c3cccs3)C(=O)N12 (racemic) [Example 7b, (5RS) Sodium (Z)-6-(2-thienyl)methylenepenem-3-carboxylate]

MIC (Staphylococci Oxford): 50 µg/mL | MIC (Staphylococci Russell): 12.5 µg/mL
SMILES: O=C(O)C1=CSC2/C(=C\c3ccsc3)C(=O)N12 (racemic) [Example 8b, (5RS) Sodium (Z)-6-(3-thienyl)methylenepenem-3-carboxylate]

MIC (Staphylococci Oxford): 62 µg/mL | MIC (Staphylococci Russell): 125 µg/mL
SMILES: O=C(O)C1=CSC2/C(=C/c3ccco3)C(=O)N12 (racemic) [Example 9b, (5RS) Sodium (E)-6-Furfurylidenepenem-3-carboxylate]

MIC (Staphylococci Oxford): 50 µg/mL | MIC (Staphylococci Russell): 50 µg/mL
SMILES: O=C(O)C1=CSC2/C(=C\c3ccc(Br)o3)C(=O)N12 (racemic) [Example 11b, (5RS) Sodium (Z)-6-(5-Bromofurfurylidene)penem-3-carboxylate]

MIC (Staphylococci Oxford): 100 µg/mL | MIC (Staphylococci Russell): 50 µg/mL
SMILES: O=C(O)C1=CSC2/C(=C/c3ccoc3)C(=O)N12 (racemic) [Example 12b, (5RS) Sodium (E)-6-(3-Furylmethylene)penem-3-carboxylate]
